This is an account of results in patent US6534523B1, “Hepatitis C inhibitor tri-peptides” (Boehringer Ingelheim (Canada) Ltd., priority 1998, dated 2003).

Each structure is given as a SMILES string. Where two headings read alike, the source gives them in different places.

The target of this experiment is HCV NS3 protease (UniProt P26663). Type of experiment: biochemical, HCV genotype 1b. Also on record: rows headed: IC50 (μM); IC50 (μM). As to the method: Recombinant HCV NS3 Protease/NS4A Cofactor Peptide Radiometric Assay
HCV NS3 protease, sequence (P26663 1027-1206, other chains not shown): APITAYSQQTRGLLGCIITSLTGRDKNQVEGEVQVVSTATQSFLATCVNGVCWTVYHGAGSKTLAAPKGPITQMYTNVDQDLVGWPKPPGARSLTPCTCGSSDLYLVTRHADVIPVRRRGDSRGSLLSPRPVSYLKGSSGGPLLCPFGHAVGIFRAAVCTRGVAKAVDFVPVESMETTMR
The enzyme was cloned, expressed and prepared according to the protocol described in Example 36. The enzyme was stored at −80° C., thawed on ice and diluted just prior to use in the assay buffer containing the NS4A cofactor peptide.
The substrate used for the NS3 protease/NS4A cofactor peptide radiometric assay, DDIVPC-SMSYTW, is cleaved between the cysteine and the serine residues by the enzyme. The sequence DDIVPC-SMSYTW corresponds to the NS5A/NS5B natural cleavage site in which the cysteine residue in P2 has been substituted for a proline. […] (molar ratio enzyme:cofactor 1:100) in the absence or presence of inhibitors. The separation of substrate from products is performed by adding avidin-coated agarose beads to the assay mixture followed by filtration. The amount of SMS[^125I-Y]TW product found in the filtrate allows for the calculation of the percentage of substrate conversion and of the percentage of inhibition.
The enzymatic reaction was initiated by the addition of the enzyme/NS4A peptide solution and the assay mixture was incubated for 40 min at 23° C. under gentle agitation. Ten (10) μL of 0.5N NaOH were added and 10 μL 1 M MES, pH 5.8 were added to quench the enzymatic reaction.
A non-linear curve fit with the Hill model was applied to the inhibition-concentration data, and the 50% effective concentration (IC50) was calculated by the use of SAS software (Statistical Software System; SAS Institute, Inc. Cary, N.C.). […]
The NS2-NS5B-3′ non coding region was cloned by RT-PCR into the pCR®3 vector (Invitrogen) using RNA extracted from the serum of an HCV genotype 1b infected individual (provided by Dr. Bernard Willems, Hôpital St-Luc, Montréal, Québec, Canada). The NS3-NS4A DNA region was then subcloned by PCR into the pFastBac™ HTa baculovirus expression vector (Gibco/BRL). The vector sequence includes a region encoding a 28-residue N-terminal sequence which contains a hexahistidine tag. The Bac-to-Bac™ baculovirus expression system (Gibco/BRL) was used to produce the recombinant baculovirus. The full length mature NS3 and NS4A heterodimer protein (His-NS3-NS4AFL) was expressed by infecting 10^6 Sf21 cells/mL with the recombinant baculovirus at a multiplicity of infection of 0.1-0.2 at 27° C. The infected culture was harvested 48 to 64 h later by centrifugation at 4° C. The cell pellet was homogenized in 50 mM NaPO4, pH 7.5, 40% glycerol (w/v), 2 mM β-mercaptoethanol, in presence of a cocktail of protease inhibitors. His-NS3-NS4AFL was then extracted from the cell lysate with 1.5% NP-40, 0.5% Triton X-100, 0.5M NaCl, and a DNase treatment. After ultracentrifugation, the soluble extract was diluted 4-fold and bound on a Pharmacia Hi-Trap Ni-chelating column. […] The His-NS3-NS4AFL was stored at −80° C. in 50 mM sodium phosphate, pH 7.5, 10% (w/v) glycerol, 0.5 M NaCl, 0.25 M imidazole, 0.1% NP-40. It was thawed on ice and diluted just prior to use. The protease activity of His-NS3-NS4AFL was assayed in 50 mM Tris-HCl, pH 8.0, 0.25 M sodium citrate, 0.01% (w/v) n-dodecyl-β-D-maltoside, 1 mM TCEP. Five (5) μM of the internally quenched substrate anthranilyl-DDIVPAbu[C(O)—O]-AMY(3-NO2)TW-OH in presence of various concentrations of inhibitor were incubated with 1.5 nM of His-NS3-NS4AFL for 45 min at 23° C. […] The reaction was terminated with the addition of 1M MES, pH 5.8. Fluorescence of the N-terminal product was monitored on a Perkin-Elmer LS-50B fluorometer equipped with a 96-well plate reader (excitation wavelength: 325 nm; emission wavelength: 423 nm).
The following tables list compounds representative of the invention.

Take `C=CC1CC1(NC(=O)C1CC(Oc2cc(-c3ccccc3)nc3cc(OC)ccc23)CN1C(=O)C(NC(=O)OC1CCCC1)C(C)(C)C)C(=O)O` (stereo not shown) [compound 869]: the IC50 (Table 8) turned out to be 14 nM. That is a double-digit nanomolar value.

`C=CC1CC1(NC(=O)C1CC(Oc2cc(-c3ccccc3)nc3cc(OC)ccc23)CN1C(=O)C(NC(=O)OC1CCOC1)C(C)(C)C)C(=O)O` (stereo not shown) [compound 867]: the IC50 (Table 8) was found to be 51 nM. This IC50 is about 3.6-fold higher than that of the compound before.

For the setting “Table 7”, `C=CC1C[C@]1(NC(=O)[C@@H]1C[C@@H](Oc2cc(C(C)(C)C)nc3cc(OC)ccc23)CN1C(=O)[C@@H](NC(=O)OC(C)(C)C)C(C)(C)C)C(=O)O` (stereo partly shown) [compound 736] showed an IC50 of 250 nM. This counts as sub-micromolar.

As to `C=CC1CC1(NC(=O)C1CC(Oc2cc(-c3cccs3)nc3cc(OC)ccc23)CN1C(=O)C(NC(=O)OC(C)(C)C)C(C)(C)C)C(=O)O` (stereo not shown) [compound 706], for the setting “Table 7”, the IC50 was 32 nM.

The compound `C=CC1CC1(NC(=O)C1CC(Oc2cc(-c3csc(NC(C)=O)n3)nc3cc(N(C)C)ccc23)CN1C(=O)C(NC(=O)OC(C)(C)C)C(C)(C)C)C(=O)O` (stereo not shown) [compound 628] registered an IC50 (Table 6) of 11 nM.

With `C=CC1CC1(NC(=O)C1CC(Oc2cc(-c3ccccc3)nc3cc(OC)ccc23)CN1C(=O)C(NC(=O)Nc1ccccc1)C(C)(C)C)C(=O)O` (stereo not shown) [compound 812], the IC50 (Table 8) came out at 13 nM.

As for `C=CC1CC1(NC(=O)C1CC(Oc2cc(-c3ccccc3)nc3cc(OC)ccc23)CN1C(=O)C(Nc1cccc(C(C)=O)c1)C(C)C)C(=O)O` (stereo not shown) [compound 828], the IC50 (Table 8) came out at 100 nM.

Regarding `C=CC1CC1(NC(=O)C1CC(Oc2cc(N(C)c3ccccc3)nc3cc(OC)ccc23)CN1C(=O)C(NC(=O)OC(C)(C)C)C(C)(C)C)C(=O)O` (stereo not shown) [compound 708], the half-maximal inhibitory concentration (IC50) (Table 7) was 150 nM.

As to `C=CC1CC1(NC(=O)C1CC(Oc2cc(-c3ccccc3)nc3cc(OC)ccc23)CN1C(=O)C(NC(=O)OC1CCOC1)C(C)(C)C)C(=O)O` (stereo not shown) [compound 865], where the note is “Table 8”, the IC50 stood at 20 nM.

`C=CC1CC1(NC(=O)C1CC(Oc2cc(-c3ccccc3)nc3cc(OC)ccc23)CN1C(=O)C(NC(=O)NC1CCCCC1)C(C)(C)C)C(=O)O` (stereo not shown) [compound 808] showed an IC50 (Table 8) of 8 nM. Against the preceding compound, the IC50 is about 2.5-fold lower.

Turning to `C=CC1CC1(NC(=O)C1CC(Oc2cc(-c3ccccc3)nc3cc(F)ccc23)CN1C(=O)C(NC(=O)OC(C)(C)C)C(C)(C)C)C(=O)O` (stereo not shown) [compound 627], 330 nM corresponded to half-maximal inhibition (Table 6) (IC50).

For the compound `C=CC1CC1(NC(=O)C1CC(Oc2ccnc3cc(N(C)C)ccc23)CN1C(=O)C(NC(=O)OC(C)(C)C)C(C)(C)C)C(=O)O` (stereo not shown) [compound 615], the IC50 (Table 6) stood at 160 nM.

As for `C=CC1CC1(NC(=O)C1CC(Oc2cc(-c3cccc(Cl)c3)nc3cc(OC)ccc23)CN1C(=O)C(NC(=O)OC(C)(C)C)C(C)(C)C)C(=O)O` (stereo not shown) [compound 815], half-maximal inhibition (Table 8) (IC50) was put at 160 nM.

The compound `C=CC1CC1(NC(=O)C1CC(Oc2cc(N3CCOCC3)nc3ccccc23)CN1C(=O)C(NC(=O)OC(C)(C)C)C(C)(C)C)C(=O)O` (stereo not shown) [compound 612] had an IC50 (Table 6) of 278 nM.

`C=CC1CC1(NC(=O)C1CC(Oc2cc(-c3ccccc3)nc3cc(OC)ccc23)CN1C(=O)C(Nc1cccc(Oc2ccc(F)cc2)c1)C(C)C)C(=O)O` (stereo not shown) [compound 860]: the IC50 (Table 8) was determined as 240 nM.

The compound `C=CC1CC1(NC(=O)C1CC(Oc2cc(-c3ccccc3)nc3cc(OC)ccc23)CN1C(=O)C(NS(=O)(=O)c1cccs1)C(C)(C)C)C(=O)O` (stereo not shown) [compound 912] showed an IC50 (Table 9) of 34 nM.

As to `C=CC1CC1(NC(=O)C1CC(Oc2cc(OC)nc3ccccc23)CN1C(=O)C(NC(=O)OC(C)(C)C)C(C)(C)C)C(=O)O` (stereo not shown) [compound 623], where the note is “Table 6”, the IC50 came out at 200 nM.

In the case of `C=CC1CC1(NC(=O)C1CC(Oc2cc(-c3ccccc3)nc3cc(OC(C)C)ccc23)CN1C(=O)C(NC(=O)OC(C)(C)C)C(C)(C)C)C(=O)O` (stereo not shown) [compound 605], where the note is “Table 6”, the IC50 came to 195 nM.

Where the note is “Table 8”, `C=CC1CC1(NC(=O)C1CC(Oc2cc(-c3ccccc3)nc3cc(OC)ccc23)CN1C(=O)C(Nc1ccc([N+](=O)[O-])c(C(F)(F)F)c1)C(C)C)C(=O)O` (stereo not shown) [compound 819] displayed an IC50 of 320 nM.

`C=CC1CC1(NC(=O)C1CC(Oc2cc(-c3ccccc3)nc3cc(OC)ccc23)CN1C(=O)C(NC(=O)c1ccccc1)C(C)(C)C)C(=O)O` (stereo not shown) [compound 908]: under “Table 9”, the midpoint of inhibition, the IC50, lay at 72 nM.

Where the note is “Table 7”, `C=CC1CC1(NC(=O)C1CC(Oc2cc(-c3cnccn3)nc3cc(OC)ccc23)CN1C(=O)C(NC(=O)OC(C)(C)C)C(C)(C)C)C(=O)O` (stereo not shown) [compound 729] yielded an IC50 of 200 nM. That is a sub-micromolar value.

For `C=CC1CC1(NC(=O)C1CC(Oc2cc(-c3csc(CS(C)(=O)=O)n3)nc3cc(OC)ccc23)CN1C(=O)C(NC(=O)OC(C)(C)C)C(C)(C)C)C(=O)O` (stereo not shown) [compound 728], inhibition (Table 7) was half-maximal at 22 nM (IC50).

Compound `C=C[C@H]1C[C@]1(NC(=O)[C@@H]1C[C@@H](Oc2ccnc3ccccc23)CN1C(=O)[C@@H](NC(=O)OC(C)(C)C)C1CCCCC1)C(=O)O` [compound 306] yielded a half-inhibitory concentration (IC50) (Table 3) of 800 nM.

For `C=CC1CC1(NC(=O)C1CC(Oc2cc(-c3ccccc3)nc3cc(OC)ccc23)CN1C(=O)C(NC(=O)NC(C)C(N)=O)C(C)(C)C)C(=O)O` (stereo not shown) [compound 831], it took 15 nM to reach half-maximal inhibition (Table 8) (IC50).

In turn, `C=CC1CC1(NC(=O)C1CC(Oc2cc(-c3ccccc3)nc3cc(OC)ccc23)CN1C(=O)C(NC(=O)OC(C)(C)C)C(C)OC)C(=O)O` (stereo not shown) [compound 852] gave an IC50 (Table 8) of 50 nM.

Compound `C=CC1CC1(NC(=O)C1CC(Oc2cc(-c3ccccc3)nc3cc(OC)ccc23)CN1C(=O)C(NC(=O)OC(C)(C)C)C(C)OCc1ccccc1)C(=O)O` (stereo not shown) [compound 853] had an IC50 (Table 8) of 170 nM. Against the preceding compound, the IC50 is about 3.4-fold higher.

For the setting “Table 8”, `C=CC1CC1(NC(=O)C1CC(Oc2cc(-c3ccccc3)nc3cc(OC)ccc23)CN1C(=O)C(CC(C)(C)C)NC(=O)OC(C)(C)C)C(=O)O` (stereo not shown) [compound 849] yielded an IC50 of 110 nM.

On to `C=CC1CC1(NC(=O)C1CC(Oc2ccnc3ccccc23)CN1C(=O)C(NC(=O)OC(C)(C)C)C(C)CC)C(=O)O` (stereo not shown) [compound 509], for which, for the setting “Table 5”, the IC50 was determined as 377 nM.

In turn, `C=CC1CC1(NC(=O)C1CC(Oc2ccnc3cc(OC)ccc23)CN1C(=O)C(NC(=O)OC(C)(C)C)C(C)(C)C)C(=O)O` (stereo not shown) [compound 604] gave an IC50 (Table 6) of 73 nM.

In the case of `C=CC1CC1(NC(=O)C1CC(Oc2cc(-c3ccccc3)nc3cc(OC)ccc23)CN1C(=O)C(NC(=S)NC1CCCCC1)C(C)(C)C)C(=O)O` (stereo not shown) [compound 818], 19 nM corresponded to half-maximal inhibition (Table 8) (IC50). In other words, the double-digit nanomolar range.

`C=C[C@H]1C[C@]1(NC(=O)[C@@H]1C[C@@H](OCc2cccc3ccccc23)CN1C(=O)[C@@H](NC(=O)OC(C)(C)C)C1CCCCC1)C(=O)O` [compound 305] registered an IC50 (Table 3) of 3200 nM.

`C=CC1CC1(NC(=O)C1CC(Oc2cc(N3CCCC3)nc3ccccc23)CN1C(=O)C(NC(=O)OC(C)(C)C)C(C)(C)C)C(=O)O` (stereo not shown) [compound 613] registered an IC50 (Table 6) of 1000 nM.

In the case of `C=C[C@H]1C[C@]1(NC(=O)[C@@H]1C[C@@H](Oc2cccc3ccccc23)CN1C(=O)[C@@H](NC(=O)OC(C)(C)C)C1CCCCC1)C(=O)O` [compound 308], the midpoint of inhibition (Table 3), the IC50, lay at 1600 nM.

Under “Table 7”, `C=CC1CC1(NC(=O)C1CC(Oc2cc(-c3cccnc3)nc3cc(OC)ccc23)CN1C(=O)C(NC(=O)OC(C)(C)C)C(C)(C)C)C(=O)O` (stereo not shown) [compound 716] gave an IC50 of 79 nM. This lies in the double-digit nanomolar range.

Consider `C=CC1CC1(NC(=O)C1CC(Oc2cc(-c3cnn(C)c3)nc3cc(OC)ccc23)CN1C(=O)C(NC(=O)OC(C)(C)C)C(C)(C)C)C(=O)O` (stereo not shown) [compound 701], for which, under “Table 7”, the IC50 turned out to be 28 nM.

On to `C=CC1CC1(NC(=O)C1CC(Oc2cc(-c3ccccc3)nc3cc(OC)ccc23)CN1C(=O)C(NC(=O)OCC(C)(C)N)C(C)(C)C)C(=O)O` (stereo not shown) [compound 866], for which half-maximal inhibition (Table 8) (IC50) required 200 nM. This counts as sub-micromolar.

In the case of `C=CC1CC1(NC(=O)C1CC(Oc2cc(-c3ccccc3)nc3cc(OC)ccc23)CN1C(=O)C(NC(=O)NC(CC)C(C)(C)C)C(C)(C)C)C(=O)O` (stereo not shown) [compound 906], the IC50 (Table 9) is 14 nM. This counts as double-digit nanomolar.
